Results reported in the NIST ThermoML archive (doi:10.1021/acs.jced.9b00424).

Assay: xn = mol fraction of the nth substance listed
Details: for surface tension liquid-gas: Pendant drop shape; for viscosity: 100 kPa, Concentric cylinders viscometry; for viscosity / mass density: Liquid; for mass density: 101 kPa, Vibrating tube method

CCCCCCCC(=O)O [octanoic acid] + CC(C)[C@@H]1CC[C@@H](C)C[C@H]1O
Details | mass density [kg/m3] | surface tension liquid-gas [mN/m] | viscosity [mPa·s]
297.82 K, x2 = 0 | – | 30.95 | –
298 K, x2 = 0.333 | – | 25.72 | –
298.11 K, x2 = 0.5 | – | 26.67 | –
298.15 K, x2 = 0 | 917.2 | – | 5.17
298.15 K, x2 = 0.25 | 914.7 | – | 7.61
298.15 K, x2 = 0.333 | 914.1 | – | 8.81
298.15 K, x2 = 0.5 | 912.3 | – | 12.18
298.15 K, x2 = 0.667 | 910.3 | – | 17.71
298.15 K, x2 = 0.75 | 909.3 | – | 20.82
298.16 K, x2 = 0.25 | – | 23.32 | –
298.2 K, x2 = 0.75 | – | 23.77 | –
298.24 K, x2 = 0.667 | – | 20.94 | –
302.68 K, x2 = 0 | – | 30.04 | –
303.04 K, x2 = 0.5 | – | 25.67 | –
303.15 K, x2 = 0 | 910.3 | – | 4.54
303.15 K, x2 = 0.25 | 908 | – | 6.46
303.15 K, x2 = 0.333 | 907.4 | – | 7.37
303.15 K, x2 = 0.5 | 905.7 | – | 9.83
303.15 K, x2 = 0.667 | 903.7 | – | 13.65
303.15 K, x2 = 0.75 | 902.7 | – | 15.46
303.69 K, x2 = 0.333 | – | 24.84 | –
303.77 K, x2 = 0.667 | – | 20.53 | –
303.85 K, x2 = 0.25 | – | 22.25 | –
303.88 K, x2 = 0.75 | – | 23 | –
307.73 K, x2 = 0.5 | – | 24.67 | –
308.15 K, x2 = 0 | 903.8 | – | 4.01
308.15 K, x2 = 0.25 | 901.7 | – | 5.54
308.15 K, x2 = 0.333 | 901.1 | – | 6.23
308.15 K, x2 = 0.5 | 899.5 | – | 8.06
308.15 K, x2 = 0.667 | 897.6 | – | 10.73
308.15 K, x2 = 0.75 | 896.6 | – | 11.94
308.49 K, x2 = 0 | – | 28.56 | –
308.53 K, x2 = 0.333 | – | 24.25 | –
308.73 K, x2 = 0.25 | – | 21.65 | –
308.75 K, x2 = 0.667 | – | 20.24 | –
308.78 K, x2 = 0.75 | – | 22.27 | –
312.93 K, x2 = 0 | – | 27.56 | –
313.15 K, x2 = 0 | 897.6 | – | 3.59
313.15 K, x2 = 0.25 | 895.6 | – | 4.81
313.15 K, x2 = 0.333 | 895.1 | – | 5.35
313.15 K, x2 = 0.5 | 893.5 | – | 6.72
313.15 K, x2 = 0.667 | 891.7 | – | 8.62
313.15 K, x2 = 0.75 | 890.6 | – | 9.42
313.17 K, x2 = 0.333 | – | 23.9 | –
313.35 K, x2 = 0.5 | – | 23.58 | –
314.11 K, x2 = 0.25 | – | 21.16 | –
314.26 K, x2 = 0.667 | – | 19.94 | –
314.39 K, x2 = 0.75 | – | 21.81 | –
317.8 K, x2 = 0 | – | 26.06 | –
318.12 K, x2 = 0.5 | – | 22.74 | –
318.15 K, x2 = 0 | 891.7 | – | 3.2
318.15 K, x2 = 0.25 | 889.9 | – | 4.18
318.15 K, x2 = 0.333 | 889.4 | – | 4.6
318.15 K, x2 = 0.5 | 887.9 | – | 5.63
318.15 K, x2 = 0.667 | 886.1 | – | 7
318.15 K, x2 = 0.75 | 885 | – | 7.53
318.42 K, x2 = 0.333 | – | 23.36 | –
318.81 K, x2 = 0.667 | – | 19.7 | –
318.88 K, x2 = 0.25 | – | 20.56 | –
318.9 K, x2 = 0.75 | – | 21.15 | –
322.15 K, x2 = 0 | – | 24.99 | –
322.96 K, x2 = 0.333 | – | 22.93 | –
322.97 K, x2 = 0.5 | – | 21.75 | –
323.15 K, x2 = 0 | 886.2 | – | 2.88
323.15 K, x2 = 0.25 | 884.6 | – | 3.68
323.15 K, x2 = 0.333 | 884 | – | 4
323.15 K, x2 = 0.5 | 882.6 | – | 4.79
323.15 K, x2 = 0.667 | 880.9 | – | 5.78
323.15 K, x2 = 0.75 | 879.5 | – | 6.12
323.52 K, x2 = 0.667 | – | 19.52 | –
323.58 K, x2 = 0.25 | – | 20.1 | –
323.61 K, x2 = 0.75 | – | 20.72 | –
327.39 K, x2 = 0 | – | 24.46 | –
328.11 K, x2 = 0.75 | – | 20.22 | –
328.15 K, x2 = 0 | 880.9 | – | 2.609
328.15 K, x2 = 0.25 | 879.5 | – | 3.25
328.15 K, x2 = 0.333 | 878.9 | – | 3.51
328.15 K, x2 = 0.5 | 877.6 | – | 4.11
328.15 K, x2 = 0.667 | 875.9 | – | 4.83
328.15 K, x2 = 0.75 | 874.4 | – | 5.05
328.35 K, x2 = 0.5 | – | 20.44 | –
328.41 K, x2 = 0.333 | – | 22.47 | –
328.48 K, x2 = 0.667 | – | 19.19 | –
328.93 K, x2 = 0.25 | – | 19.73 | –
331.72 K, x2 = 0 | – | 23.43 | –
332.7 K, x2 = 0.75 | – | 19.65 | –
332.78 K, x2 = 0.333 | – | 21.79 | –
332.97 K, x2 = 0.5 | – | 19.47 | –
333.15 K, x2 = 0 | 876 | – | 2.372
333.15 K, x2 = 0.25 | 874.7 | – | 2.9
333.15 K, x2 = 0.333 | 874.1 | – | 3.1
333.15 K, x2 = 0.5 | 872.9 | – | 3.56
333.15 K, x2 = 0.667 | 871.2 | – | 4.09
333.15 K, x2 = 0.75 | 869.4 | – | 4.22
333.27 K, x2 = 0.667 | – | 18.98 | –
333.38 K, x2 = 0.25 | – | 19.41 | –
338.15 K, x2 = 0 | 871.4 | – | 2.166
338.15 K, x2 = 0.25 | 870.1 | – | 2.595
338.15 K, x2 = 0.333 | 869.6 | – | 2.753
338.15 K, x2 = 0.5 | 868.4 | – | 3.11
338.15 K, x2 = 0.667 | 866.7 | – | 3.49
338.15 K, x2 = 0.75 | 864.6 | – | 3.56
343.15 K, x2 = 0 | 867.1 | – | 1.985
343.15 K, x2 = 0.25 | 865.9 | – | 2.336
343.15 K, x2 = 0.333 | 865.4 | – | 2.461
343.15 K, x2 = 0.5 | 864.3 | – | 2.732
343.15 K, x2 = 0.667 | 862.6 | – | 3.02
343.15 K, x2 = 0.75 | 860 | – | 3.04
348.15 K, x2 = 0 | 863 | – | 1.826
348.15 K, x2 = 0.25 | 862 | – | 2.113
348.15 K, x2 = 0.333 | 861.5 | – | 2.212
348.15 K, x2 = 0.5 | 860.4 | – | 2.419
348.15 K, x2 = 0.667 | 858.7 | – | 2.625
348.15 K, x2 = 0.75 | 855.7 | – | 2.635
353.15 K, x2 = 0 | 859.3 | – | 1.683
353.15 K, x2 = 0.25 | 858.3 | – | 1.921
353.15 K, x2 = 0.333 | 857.9 | – | 1.996
353.15 K, x2 = 0.5 | 856.7 | – | 2.156
353.15 K, x2 = 0.667 | 855.1 | – | 2.301
353.15 K, x2 = 0.75 | 851.6 | – | 2.324
